Test results taken from the supplement of paper PMC11061612.

Columns and labels:
Test in all cases: Bliss excess, mean over the matrix (fraction); higher = more synergy
[1] = system: NCI-H3118 (Head and Neck Carcinoma)
Method in brief: (§1)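 Bliss excess equals the observed combination effect minus the expected value EA + EB − EA·EB, where EA and EB are the effects of each agent alone. Combination Emax is the second-highest inhibition within the matrix. Inhibition was scaled from CellTiter-Glo 2.0 luminescence, with 0 set by vehicle wells and 1 by blank wells, after 72 hours of two-drug dosing of cells plated in 1536-well plates.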

T47D (Breast Carcinoma) = system: T47D (Breast Carcinoma)
Method in brief: as §1

AM-38 (Glioblastoma) = system: AM-38 (Glioblastoma)
Method in brief: as §1

[2] = system: BHT-101 (Thyroid Gland Carcinoma)
Method in brief: as §1

[3] = system: T84 (Colorectal Carcinoma)
Method in brief: as §1

[4] = system: BxPC-3 (Pancreatic Carcinoma)
Method in brief: as §1

[5] = system: MONO-MAC-6 (Acute Myeloid Leukemia)
Method in brief: as §1

NCI-H226 (Mesothelioma) = system: NCI-H226 (Mesothelioma)
Method in brief: as §1

[6] = system: OVCAR-3 (Ovarian Carcinoma)
Method in brief: as §1

[7] = system: PA-TU-8988T (Pancreatic Carcinoma)
Method in brief: as §1

[8] = system: CL-11 (Colorectal Carcinoma)
Method in brief: as §1

[9] = system: MDA-MB-415 (Breast Carcinoma)
Method in brief: as §1

WM35 (Melanoma) = system: WM35 (Melanoma)
Method in brief: as §1

[10] = system: P30-OHK (B-Lymphoblastic Leukemia)
Method in brief: as §1

[11] = system: P32-ISH (Burkitt's Lymphoma)
Method in brief: as §1

[12] = system: NCI-H1876 (Small Cell Lung Carcinoma)
Method in brief: as §1

NCI-H2373 (Mesothelioma) = system: NCI-H2373 (Mesothelioma)
Method in brief: as §1

[13] = system: TUR (Acute Myeloid Leukemia)
Method in brief: as §1

[14] = system: NCI-H596 (Other Solid Carcinomas)
Method in brief: as §1

[15] = system: ZR-75-30 (Breast Carcinoma)
Method in brief: as §1

SMILES | Bliss excess [1] | Bliss excess (T47D (Breast Carcinoma)) | Bliss excess (AM-38 (Glioblastoma)) | Bliss excess [2] | Bliss excess [3] | Bliss excess [4] | Bliss excess [5] | Bliss excess (NCI-H226 (Mesothelioma)) | Bliss excess [6] | Bliss excess [7] | Bliss excess [8] | Bliss excess [9] | Bliss excess (WM35 (Melanoma)) | Bliss excess [10] | Bliss excess [11] | Bliss excess [12] | Bliss excess (NCI-H2373 (Mesothelioma)) | Bliss excess [13] | Bliss excess [14] | Bliss excess [15]
COc1cccc(OCCCN)c1-c1cc(Nc2cnc(C#N)cn2)n[nH]1 [Prexasertib] + O=C(c1cc(Cc2n[nH]c(=O)c3ccccc23)ccc1F)N1CCN(C(=O)C2CC2)CC1 [Olaparib] (first compound max 1 µM, 7x7, partner max 10 µM) | -0.0501 | -0.0093 | 0.0359 | -0.0528 | -0.0119 | -0.0706 | -0.0195 | -0.0802 | 0.0265 | -0.0057 | -0.0583 | 0.0074 | -0.0377 | -0.0074 | -0.0205 | -0.0338 | 0.001 | -0.0181 | 0.0098 | -0.108
COc1nnc2ccc(N3CCC(c4ccc(OCCN5CCN(C)C(=O)[C@H]5C)cc4)CC3)nn12 [AZD5153] + C[C@@H]1COCCN1C2=NC(=NC(=C2)C3(CC3)[S@](=N)(=O)C)C4=C5C=CNC5=NC=C4 [AZD6738] (first compound max 1 µM, 7x7, partner max 10 µM) | -0.0879 | 0.0796 | 0.0447 | -0.0166 | -0.131 | -0.0013 | -0.031 | 0.0038 | 0.0931 | 0.0531 | -0.0383 | -0.0009 | 0.0621 | -0.0012 | -0.0039 | 0.089 | -0.0263 | -0.0046 | -0.0028 | 0.019
Cc1c2c(nn1C)CSCc1cc(n(C)n1)CSc1cc(c3ccccc3c1)OCCCc1c(C(=O)O)n(C)c3c-2c(Cl)ccc13 [AZD5991] + C[C@@H]1COCCN1C2=NC(=NC(=C2)C3(CC3)[S@](=N)(=O)C)C4=C5C=CNC5=NC=C4 [AZD6738] (first compound max 1 µM, 7x7, partner max 10 µM) | 0.0942 | 0.0333 | 0.0312 | 0.0666 | -0.0127 | -0.01 | -0.02 | 0.0298 | 0.0623 | 0.0151 | 0.0322 | 0.0328 | 0.0604 | 0.0592 | 0.0231 | 0.0961 | 0.0293 | 0.096 | -0.0172 | 0.0285
CCc1c2c(nc3ccc(O)cc13)-c1cc3c(c(=O)n1C2)COC(=O)[C@]3(O)CC [SN-38] + CN(C)CCCOc1ccc(-c2ccc3ncc4c(c3c2)n(C2CCOCC2)c(=O)n4C)cn1 [AZD0156] (first compound max 0.3 µM, 7x7, partner max 1 µM) | 0.0864 | -0.0023 | 0.149 | 0.0664 | 0.108 | 0.0025 | 0.0746 | -0.0287 | -0.037 | 0.0755 | 0.117 | -0.0262 | 0.0082 | 0.0969 | 0.0657 | -0.0111 | -0.0037 | 0.0516 | 0.027 | -0.194
NC1(C(=O)N[C@@H](CCO)c2ccc(Cl)cc2)CCN(c2ncnc3[nH]ccc23)CC1 [Capivasertib] + Cn1cnc2c(F)c(Nc3ccc(Br)cc3Cl)c(C(=O)NOCCO)cc21 [Selumetinib] (first compound max 10 µM, 7x7, partner max 10 µM) | 0.091 | -0.0108 | 0.0564 | 0.081 | -0.0598 | -0.0091 | 0.0394 | -0.063 | -0.0223 | 0.128 | -0.0202 | 0.0162 | 0.0104 | 0.0142 | 0.0288 | 0.0122 | -0.0381 | 0.0879 | 0.0182 | -0.0071
COc1nnc2ccc(N3CCC(c4ccc(OCCN5CCN(C)C(=O)[C@H]5C)cc4)CC3)nn12 [AZD5153] + C=CCn1c(=O)c2cnc(Nc3ccc(N4CCN(C)CC4)cc3)nc2n1-c1cccc(C(C)(C)O)n1 [AZD1775] (first compound max 1 µM, partner max 1 µM) | -0.0981 | -0.0262 | -0.0594 | -0.0885 | -0.0643 | -0.028 | -0.0323 | -0.0349 | 0.0107 | -0.0738 | -0.0376 | -0.0878 | -0.0242 | 0.0298 | -0.0649 | 0.0224 | -0.0589 | -0.0252 | -0.131 | -0.042
